Laboratory results taken from US20100152285A1, “Flavononol Renin Inhibitor Compounds and Methods of Use Thereof” (HerbalScience Group LLC, priority 2008, published 2010).

System: monocrotaline induced hypertension in rats
Experiment: Monocrotaline-induced hypertension rat model, tail-cuff blood pressure and pulse
Assay type: in vivo, Sprague-Dawley rats
Description: Animal Care and Handeling. Sprague-Dawley rats (Charles River Laboratories, Wilmington, Mass.) 60 days old and weighing 140-160 g were utilized. Animals were kept in standard autoclaved rodent cages with ad libitum food (Harlan Teklad Irradiated Rodent Diet) and autoclaved water. The rats were housed on Harlan Tek-chip pelleted paper in static micro isolators maintained at 22° C., 60% relative humidity, and under a 12 h light cycle. The animals were kept at the facility for 5 days to get accustomed to the environment after the arrival from the vendor. All animal care procedures complied with the recommendations of the Guide for Care and Use of Laboratory Animals with respect to restraint, husbandry, surgical procedures, feed and fluid regulation, and veterinary care. Induction of hypertension and the treatment. Rats were injected subcutaneously with monocrotaline (MCT, 60 mg kg^−1) and monitored for 12 days for the development of pulmonary inflammation and initiation of the pulmonary hypertensive response. After the incubation period, Tristenonol aglycone (Cmp. 15 of the present invention) was administrated orally to the animals in three different doses (120, 90, and 60 mg kg^−1 body weights). Blood pressure (BP; Systolic and Diastolic) and heart beats were recorded three times a day 24, 48, and 72 h after administration of compound BP.
Test Articles and Animal Groups. Three doses of Tristenonol aglycone (Cmp 15 of the present invention) were tested. The animals were randomized before and grouped in to 10 animals per group. For positive controls used the commercially available drug Atenol® was used.
Rats were sorted into six groups of ten and treated according to the protocol in Table 1. […] All remaining groups were administered monocrotaline. […] Groups 3, 4 and 5 received Tristenonol aglycone (Cmp 15 of the present invention) at […], 90, and 60 mg respectively per kg body weight 12 days after induction of hypertension with monocrotaline. Positive Control Group 6 was given the commercial drug Atenol® at 120 mg kg^−1.
Systolic blood pressure, diastolic blood pressure and heart beats were recorded in the morning, afternoon and evening three times, 24, 48, and 72 h after Tristenonol aglycone (Cmp 15) and Atenol® administration.
Protocol for the Measurement of the Blood Pressure. A tail-cuff was placed on the tail to occlude the blood flow. Upon deflation a non-invasive blood pressure sensors, placed distal to the occlusion cuff, was utilized to monitor the blood pressure. Volume Pressure Recording. The volume pressure recording sensor utilizes a specially designed differential pressure transducer to non-invasively measure the blood volume in the tail. Volume pressure recording actually measured six blood pressure parameters simultaneously: systolic blood pressure, diastolic blood pressure, mean blood pressure, heart pulse rate, tail blood volume and tail blood flow. […] In addition, volume pressure recording was not dependent on the skin pigmentation of the animal. Dark-skinned animals have no negative effect on volume pressure recording measurements. Special attention was afforded to the length of the occlusion cuff with volume pressure recording in order to derive the most accurate blood pressure readings. Endpoint Measurements. Each animal was sacrificed when the animal reached the predetermined endpoint of being moribund or when the animals remained […]. The animals were observed and if found incapable of eating or drinking or if their body temperature were too low to sustain life, the animals were sacrificed. Treatment efficacy is determined from the reduction in systolic blood pressure, diastolic blood pressure and heart beats of the animal compared to the untreated control group. Toxicity and Necropsy Examination. Animals were weighed daily throughout the experiment. […]

[1] = 120 mg kg^−1 body weight, rats with monocrotaline
[2] = monocrotaline 60 mg kg^−1 subcutaneously

SMILES	decrease in Diastolic blood pressure compared to untreated control [1]	reduction in pulse rate compared to untreated controls [1]	reduction of mean Systolic blood pressure compared to untreated animals (120 mg kg^−1 body weight, rats with monocrotaline, 24-72 h)	increase in Diastolic blood pressure in injected rats [2]	increase in Systolic blood pressure in injected rats [2]	increase in pulse rate in injected animals [2]
CC(C)NCC(O)COc1ccc(CC(N)=O)cc1 (stereo not drawn) [Atenol®]	24-25%	35-36.38%	28%			
C[C@H]1C(=O)O[C@@H]2CCN3CC=C(COC(=O)[C@](C)(O)[C@]1(C)O)[C@H]23 [Monocrotaline, monocrotaline]				49-52%	40-45%	60-70%
